This note sets out measurements from article PMC8597046, “Use of Mixture Dosing and Nonlinear Mixed Effect Modeling of Eight Environmental Contaminants in Rabbits to Improve Extrapolation Value of Toxicokinetic Data” (Environmental Health Perspectives, 2021).

Structures are written as SMILES. Bounds are passed on as bounds.

Series [1] in a line: Nonlinear mixed effect (NLME) compartmental modeling of merged IV and oral serum concentrations. Particulars: for Volume(s) of the peripheral compartment: for PFOA first peripheral compartment. From the text:
A nonlinear mixed effect (NLME) modeling approach was used to analyze simultaneously all data obtained from the different rabbits after both IV and oral administrations and to provide robust estimates of the typical TK parameters.
The primary parameters of the model, namely the volume of distribution of the central compartment (V1), the first-order rate constants ( K10 , K12 , K21 , and Kabs plus K13 , K31 for PFOA) and the bioavailability (F) and their associated precisions [standard error (SE)] were estimated by minimizing an objective function value (OFV) expressed as minus twice the log of the likelihood estimation ( −2LL ). […] Marginal likelihood was approximated by using the Laplacian engine by default and, when this engine was unable to determine the SE of the estimate, the Quasi-Random Parametric Expectation Maximization (QRPEM) was selected.
Between subject variability (BSV) of the parameters was measured using the exponential model θparameter_i=θtv_parameter×exp (ηi), where θparameter_i is the parameter estimated for the ith individual, θtv_parameter is the typical population value of the parameter, and ηi is the deviation associated with the ith individual from the corresponding value of the parameter at the population level.
The distribution of ηi was assumed to be normal with a mean of 0 and a variance ω² . BSV was reported as a coefficient of variation (CV) in the original scale CV(%)=100× exp (ω^2)−1 .
The residual variance was modeled using a combined additive and proportional error model Cobsij=Cpredij(1 + ε1ij) + ε2ij, where Cobsij and Cpredij are respectively the jth observed and predicted concentrations for the ith individual, and ε1ij and ε2ij are the multiplicative and additive residual errors.
Secondary parameters were calculated from the population primary parameters.
The clearance values (CL) were estimated using Equation 5: (5) CL=K10×V1, where V1 is the volume of the central compartment and K10 is the elimination rate constant from the central compartment.
The volume of the peripheral compartment (V2) was estimated with Equation 6: (6) V2=V1×(K12/K21), where K12 and K21 are the distribution rate constants between the central and the peripheral compartments.
The clearance of distribution (Q) was estimated using Equation 7: (7) Q=K12×V1, with […] and K12 as defined above.
The volume of distribution associated with the terminal phase was estimated with Equation 10: (10) VZ=CL/λZ, with λZ as defined above.
The AUC was computed as a secondary parameter using Equation 11: (11) AUC=Dose/CL.
The terminal half-life was estimated with Equation 1, as previously described.

A short description of series [2]: Chronic exposure: daily oral mixture for 17 wk, steady-state serum concentrations. As to conditions: for concentration at 17 wk: female, New Zealand white (INRA 1777 line), rabbit, in vivo, po. Here is the method:
The objective of this preliminary experiment was to check the ability of our approach to determine the loading and maintenance doses of the eight compounds to be administered simultaneously by oral route to reproduce in female rabbits targeted serum concentrations. The experiment was carried out on thirty-two 2-wk old female New Zealand white rabbits (INRA 1777 line) randomly allocated to a treatment and control groups of 16 rabbits weighing 309±45g and 298±62g , respectively. The treated rabbits were orally administrated a mixture of the eight compounds at a dosage corresponding to the sum of the loading and daily maintenance doses followed by daily administrations of the maintenance dose for 17 wk (see the “Estimation of the doses” section). The control group was orally administrated the vehicle for the same duration.
The volume of the maintenance dosing solution ( 1mL/kg ) was weekly adjusted to the mean BW estimated from the known pattern of growth of the INRA 1777 rabbit line. Oral dosing and antemortem blood sampling were performed as previously described.
Blood samples were left to clot for about 20–30 min at ambient temperature and centrifuged for 20 min at 3,000×g at 25°C. The separated serum was stored in glass tubes at −20°C until assayed.

[3] abbreviates: population primary parameter, typical value, mean.
Setting [4] is: population secondary parameter, mean.
Setting [5] is: female, New Zealand white (INRA 1777 line), rabbit, in vivo.
[6] abbreviates: female, New Zealand white (INRA 1777 line), rabbit, in vivo, po, Oral bioavailability (F), NLME model.
The mark [7] stands for this setting: female, New Zealand white, rabbit, in vivo.
Setting [8] is: female, New Zealand white, rabbit, in vivo, population secondary parameter, mean.
Where [9] appears, read: female, New Zealand white, rabbit, in vivo, iv.
[10] abbreviates: female, New Zealand white, rabbit, in vivo, po.
The mark [11] stands for this setting: female, New Zealand white, rabbit, in vivo, po, Bioavailability, population secondary parameter, mean, as fraction.
The mark [12] stands for this setting: population primary parameter, typical value, mean, MEHP after oral DEHP.

The half-life is how long it takes for the measured level to halve. Lower therefore signals rapid decline. As to `CCCCC(CC)COC(=O)c1ccccc1C(=O)O` (stereo not drawn) [MEHP, mono(2-ethylhexyl)phthalate], the “F value for MEHP (fraction of the DEHP dose metabolized into MEHP)” value in series [1] (MEHP IV vs DEHP oral, NLME model) is 87%. In addition, the AUCIV in series [1] (dosing time to infinity after intravenous dosing, population secondary parameter) stood at 9.0 µM·h. Moreover, in series [1] (dosing time to infinity after oral dosing, population secondary parameter, MEHP after oral DEHP), the AUCVO was determined as 53 µM·h. For the same compound, in series [1] (setting [3]), the “tvK10 (elimination rate constant from the central compartment)” value is 1.411 h⁻¹, the “tvK12 (distribution rate constant)” value stood at 0.285 h⁻¹ and the “tvVc (volume of the central compartment)” value is 0.329 L/kg. In series [1] (setting [4]), the Clearance turned out to be 7.83 mL/min/kg, the MRT was determined as 0.342 days and the “Volume(s) of the peripheral compartment” value worked out at 3.5 L/kg. Further, the MRT entry in series [1] (population secondary parameter, mean, listed as mono-2-ethylhexyl phthalate) was “a few hours”. For the same compound, the half-life in series [1] (terminal, population secondary parameter, mean) was 1.29 days. Further, the “Observed CSS” value in series [2] (serum, mean±SD, n=16, after 17 weeks of oral mixture, MEHP after DEHP dosing) is listed as 51±28 (MEHP) ng/mL.
For `O=C(O)C(F)(F)C(F)(F)C(F)(F)C(F)(F)C(F)(F)C(F)(F)C(F)(F)F` [PFOA, perfluorooctanoic acid], in series [1] (PFOA 3-compartments model), the “tvK13 (distribution rate constant)” value was 0.0039 h⁻¹ and the “tvK31 (distribution rate constant)” value is 0.0080 h⁻¹. Besides, the “Volume(s) of the peripheral compartment, second value” in series [1] (PFOA three-compartment model, second peripheral compartment) came to 0.049 L/kg. Also, in series [1] (setting [5]), the Vd was 0.19 L/kg and the k el was 2.08e-05 s⁻¹. In series [1] (setting [6]), the bioavailability was 100%. In series [1] (setting [7]), the MRT is 1.04 days and the half-life was 3.83 days. In series [1] (setting [8]), this compound yielded a clearance of less than 0.167 mL/min/kg. The AUC in series [1] (setting [9]) is 26 µM·h. In series [1] (setting [10]), the AUC came out at 128 µM·h. Besides, the bioavailability in series [1] (setting [11]) came out at 100%. For the same compound, the AUCVO/dose in series [1] (oral dosing) was found to be 133 μmol×h/L per μmol/kg BW. Also, in series [1] (setting [3]), the “tvK12 (distribution rate constant)” value was determined as 0.047 h⁻¹, the “tvK21 (distribution rate constant)” value turned out to be 0.127 h⁻¹ and the “tvVc (volume of the central compartment)” value came out at 0.101 L/kg. Also, the “tvKabs (rate constant of absorption)” value in series [1] (setting [12]) was 1.408 h⁻¹. In series [1] (setting [4]), the “Volume(s) of the peripheral compartment” value was found to be 0.037 L/kg. In series [2], the concentration at 17 wk amounted to 43 ± 9.4 ng/mL.
On to `ClC(Cl)=C(c1ccc(Cl)cc1)c1ccc(Cl)cc1` [pp′DDE, 1,1-Dichloro-2,2-bis(p-chlorophenyl)ethylene], for which, in series [1] (setting [5]), the Vd was determined as 35 L/kg and the k el was 1.33e-05 s⁻¹. In series [1] (female, New Zealand white (INRA 1777 line), rabbit, in vivo, po, Oral bioavailability (F)), this compound had a bioavailability of 72%. Moreover, in series [1] (setting [7]), the MRT was 10.9 days, the half-life was 11.3 days and the clearance was 2.17 mL/min/kg. This compound came in with an AUC in series [1] (setting [9]) of 17 µM·h. In series [1] (setting [10]), this compound displayed an AUC of 77 µM·h and an AUCVO/dose of 5.35 μmol×h/L per μmol/kg BW. The bioavailability in series [1] (female, New Zealand white, rabbit, in vivo, po, Bioavailability) was 72%. Further, in series [1] (setting [3]), the “tvK12 (distribution rate constant)” value came out at 0.08353 h⁻¹, the “tvK21 (distribution rate constant)” value came out at 0.00729 h⁻¹ and the “tvVc (volume of the central compartment)” value is 2.821 L/kg. In addition, the “tvKabs (rate constant of absorption)” value in series [1] (setting [12]) came out at 0.01994 h⁻¹. Also, in series [1] (setting [4]), the “Volume(s) of the peripheral compartment” value is on record as 32 L/kg. In series [2], this compound returned a concentration at 17 wk of 25 ± 12 ng/mL.
As for `Cl[C@H]1[C@H](Cl)[C@@H](Cl)[C@H](Cl)[C@@H](Cl)[C@@H]1Cl` [β-HCH, β-hexachlorocyclohexane], in series [1] (setting [5]), the Vd is 33 L/kg. Further, the bioavailability in series [1] (setting [6]) was more than 85%. This compound gave a k el in series [1] (female, New Zealand white (INRA 1777 line), rabbit, serum, other: intravenous and oral data merged) of 4.69e-06 s⁻¹. Further, in series [1] (setting [7]), the MRT is 15.8 days and the half-life is 13.2 days. Besides, the clearance in series [1] (setting [8]) was 1.45 mL/min/kg. In series [1] (setting [9]), the AUC stood at 20 µM·h. Besides, the AUC in series [1] (setting [10]) amounted to 87 µM·h. In series [1] (setting [11]), this compound registered a bioavailability of 88%. The compound also gave an AUCVO/dose in series [1] (oral dosing) of 12.5 μmol×h/L per μmol/kg BW. Moreover, in series [1] (setting [3]), the “tvK12 (distribution rate constant)” value was 0.0593 h⁻¹, the “tvK21 (distribution rate constant)” value was determined as 0.0110 h⁻¹ and the “tvVc (volume of the central compartment)” value was found to be 5.1310 L/kg. For the same compound, the “tvKabs (rate constant of absorption)” value in series [1] (setting [12]) turned out to be 0.0955 h⁻¹. The “Volume(s) of the peripheral compartment” value in series [1] (setting [4]) is listed as 28 L/kg. For the same compound, in series [2], the concentration at 17 wk stood at 4.3 ± 1.6 ng/mL.
